Results reported in patent US20240092741A1, “COMPOSITION FOR PREVENTION OR TREATMENT OF NEUROFIBROMATOSIS TYPE 2 SYNDROME” (PRG S&TECH INC., priority 2021, published 2024).

Key:
Erk = Erk activation by Western blotting in HEI-193 cells; type: cell-based, human; settings: 24 h (FIG. 6A)
Description: Cells were harvested and lysed using RIPA buffer [50 mM Tris-Cl, pH 7.5, 150 mM NaCl, 1% NP-40, 0.1% SDS, and 10% sodium deoxycholate] to examine cellular signaling. Protein concentrations in samples were measured using Bio-Rad (Hercules, CA, USA) protein assay kits and BSA standards. The samples (20 μg protein per lane) were separated by sodium dodecyl sulfate-polyacrylamide gel electrophoresis (SDS-PAGE), transferred to Immobilon-P^SQ transfer membranes (Millipore Corp., MA, USA), which were then cultured with 3% skim milk-containing TBS-T buffer (Tris-HCl-based buffer containing 20 mM Tris pH 7.6, 150 mM NaCl, and 0.05% Tween 20) for 1 hour at room temperature and then reacted with primary antibody in TBS-T overnight at 4° C. The membranes were then washed and reacted with secondary horseradish peroxidase (HRP)-conjugated antibodies [goat anti-mouse, goat anti-rabbit, and mouse anti-goat antibodies (Pierce, Thermo Fisher Scientific, Inc., Rockford, IL, USA)] in TBS-T at room temperature for 2 hours. The blots were detected using an HRP-conjugated secondary antibody using ECL kit (Intron, Seoul, Korea).

mouse schwannoma cells = assay: Tumorsphere formation assay, mouse schwannoma cells; type: cell-based; settings: 10 μM
Description: For tumorsphere formation assay, Hei-193 or mouse schwannoma cells (3×10^6 cells/plate) were cultured in DMEM/F12 medium (supplemented with 2% B27 and 40 ng/ml bFGF) and added with the indicated chemicals on non-coated plates for indicated days.

HEI-193 cells = assay: Cell proliferation (cell counting) in HEI-193 cells; type: cell-based, human; settings: 10 μM, indicated time (FIG. 12B)
Description: Cell growth curves were analyzed by seeding 2×10^4 cells/well into a 6-well plate. After the indicated day, the cells were trypsinized and dissociated into single cells. A minimum of 10,000 cells were counted using an Attune NxT flow cytometer (Thermo Fisher Scientific, Inc., Rockford, IL, USA).

[1] = test system: NF2-transfected mouse schwannoma cells; assay: MTT and immunoblotting in NF2-transfected mouse schwannoma cells; type: cell-based; settings: NF2-transfected mouse schwannoma cells (FIGS. 9C, 9D)
Description: In other words, cells were seeded at a density of 2×10^5 cells/well in 12-well plates and cultured overnight before transfection. The vector (1.5 μg) was mixed with 1.5 μl of Jetpei reagent dissolved in 150 mM NaCl solution. The mixture was reacted at room temperature for 15 minutes, and then added to the cells. After 3 hours, the serum-free medium 15 was replaced with medium supplemented with 10% FBS. Cells were harvested and lysed using RIPA buffer [50 mM Tris-Cl, pH 7.5, 150 mM NaCl, 1% NP-40, 0.1% SDS, and 10% sodium deoxycholate] to examine cellular signaling. Protein concentrations in samples were measured using Bio-Rad (Hercules, CA, USA) protein assay kits and BSA standards. […] The blots were detected using an HRP-conjugated secondary antibody using ECL kit (Intron, Seoul, Korea). […] Plates were then cultured at 37° C. for 4 hours, the MTT solution was removed, the precipitated substances were dissolved using a solution (DMSO:ethanol=1:1), and an amount of formazan dye produced was quantified by measuring the absorbance at 560 nm using an ELISA microplate reader (Thermo Fisher Scientific, MA, USA).

[2] = target: T1, interaction between TβR1 and RKIP (Homo sapiens, UniProt P30086+P36897); assay: Immunoprecipitation of TβR1-RKIP interaction in transfected HEI-193 cells; type: cell-based; settings: FLAG-TβR1- or HA-RKIP-transfected HEI-193 cells, indicated concentrations, 6 h (FIGS. 8A, 9A)
T1 construct: host or cells: HEI-193
T1 sequence (P36897 34-503): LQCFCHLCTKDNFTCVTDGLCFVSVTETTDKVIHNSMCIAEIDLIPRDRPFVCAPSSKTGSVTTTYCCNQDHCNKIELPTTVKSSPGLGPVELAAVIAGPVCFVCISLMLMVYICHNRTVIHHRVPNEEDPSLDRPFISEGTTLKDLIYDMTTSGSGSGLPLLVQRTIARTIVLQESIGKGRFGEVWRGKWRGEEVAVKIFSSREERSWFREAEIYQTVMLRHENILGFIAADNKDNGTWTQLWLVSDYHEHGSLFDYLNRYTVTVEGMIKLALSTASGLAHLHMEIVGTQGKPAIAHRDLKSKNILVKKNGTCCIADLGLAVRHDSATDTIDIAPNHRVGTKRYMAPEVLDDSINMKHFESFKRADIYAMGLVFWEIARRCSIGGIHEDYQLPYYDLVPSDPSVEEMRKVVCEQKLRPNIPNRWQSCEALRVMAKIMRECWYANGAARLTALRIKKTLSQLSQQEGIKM
T1 sequence (P30086 2-187 limits assumed): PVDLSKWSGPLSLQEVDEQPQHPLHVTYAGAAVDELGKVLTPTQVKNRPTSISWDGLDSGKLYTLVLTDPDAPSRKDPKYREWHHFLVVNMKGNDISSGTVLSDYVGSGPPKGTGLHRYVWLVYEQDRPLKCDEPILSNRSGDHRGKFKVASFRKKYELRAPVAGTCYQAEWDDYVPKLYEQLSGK
Description: For protein-protein interaction analysis, glutathione S-transferase (GST)-pull down assay was performed. For GST-pull down, agarose-bead-conjugated GST-RKIP recombinant protein was reacted with FLAG-tagged TβR1-transfected HEK 293 cell lysates in PBS buffer at 4° C. for 1 hour. Immunoprecipitation (IP) assay was performed by reacting with FLAG-tagged TβR1- or HA-tagged RKIP-transfected HEI-193 cell lysates in PBS buffer. Whole lysates were reacted with appropriate primary antibodies at 4° C. for 2 hours and with agarose-bead-conjugated protein A/G (Invitrogen, Carlsbad, CA, USA) for 2 hours. After centrifugation, the precipitates were washed twice with RIPA buffer and subjected to SDS-PAGE and western blotting analysis.

## CCN(CC)CCOc1ccc(-c2nnn(Cc3ccc(OC)cc3)c2N)cc1 [PRG-N-01, 4-(4-(2-(diethylamino)ethoxy)phenyl)-1-(4-methoxybenzyl)-1H-1,2,3-triazol-5-amino]
Erk
  Erk activation: inhibited Erk activation
Mouse schwannoma cells; 10th day
  tumorsphere size and number: reduced the tumorsphere size as well as the number of tumorsphere
Mouse schwannoma cells; DMEM/F12 medium
  tumorsphere formation: obviously inhibited tumorsphere formation
HEI-193 cells
  cell growth (cell count): completely inhibited cell growth
[1]
  chemical effect (antiproliferating effect, RKIP induction, p-Erk suppression): no chemical effect
[2]
  binding between TβR1 and RKIP (IP): interrupted the binding in a dose-dependent manner
